The test addresses T1, human GR (glucocorticoid receptor) (Homo sapiens, UniProt P04150).
T1 construct: expressed in transfected cells; host or cells: HEK293 (lysate, 293-GR)
T1 sequence (P04150 1-777): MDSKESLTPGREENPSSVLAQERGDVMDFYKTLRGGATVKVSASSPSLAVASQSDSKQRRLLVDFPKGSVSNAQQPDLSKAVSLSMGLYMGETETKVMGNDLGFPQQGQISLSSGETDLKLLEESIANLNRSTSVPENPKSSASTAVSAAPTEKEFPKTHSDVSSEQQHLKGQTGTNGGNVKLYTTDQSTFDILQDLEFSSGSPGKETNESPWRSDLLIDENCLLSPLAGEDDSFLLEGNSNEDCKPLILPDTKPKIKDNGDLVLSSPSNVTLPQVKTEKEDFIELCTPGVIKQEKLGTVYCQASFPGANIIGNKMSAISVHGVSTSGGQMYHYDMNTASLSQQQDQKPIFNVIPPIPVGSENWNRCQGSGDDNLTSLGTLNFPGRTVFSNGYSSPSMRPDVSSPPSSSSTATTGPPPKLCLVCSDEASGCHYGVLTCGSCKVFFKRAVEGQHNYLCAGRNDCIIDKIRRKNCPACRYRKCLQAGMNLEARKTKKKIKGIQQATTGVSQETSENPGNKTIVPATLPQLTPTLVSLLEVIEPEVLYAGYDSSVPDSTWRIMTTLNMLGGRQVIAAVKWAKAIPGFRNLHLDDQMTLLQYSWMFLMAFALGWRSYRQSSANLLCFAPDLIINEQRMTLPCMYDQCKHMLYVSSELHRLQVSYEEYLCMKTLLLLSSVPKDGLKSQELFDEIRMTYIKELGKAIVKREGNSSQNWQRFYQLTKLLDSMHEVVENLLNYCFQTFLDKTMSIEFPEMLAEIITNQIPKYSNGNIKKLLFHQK
The test can be described thus: Steroid hormone nuclear receptor binding assay, GR. Conditions: HEK293 lysate overexpressing human GR, [3H]-dexamethasone. How it is done:
Cell lysates from human embryonic kidney HEK293 cells overexpressing human MR (mineralocorticoid receptor), GR (glucocorticoid receptor), AR (androgen receptor), or PR (progesterone receptor) are used for receptor-ligand competition binding assays to determine Ki values. Typical procedures are provided below
Briefly, steroid receptor competition binding assays are run in a buffer containing 20 mM HEPES buffer (pH=7.6), 0.2 mM EDTA, 75 mM NaCl, 1.5 mM MgCl2, 20% glycerol, 20 mM sodium molybdate, 0.2 mM DTT (dithiothreitol), 20 μg/mL aprotinin and 20 μg/mL leupeptin (assay buffer). Typically, steroid receptor binding assays include radio-labeled ligands, such as 0.25 nM [^3H]-aldosterone for MR binding, 0.3 nM [^3H]-dexamethasone for GR binding, 0.36 nM [^3H]-methyltrienolone for AR binding, and 0.29 nM [^3H]-methyltrienolone for PR binding, and either 20 μg 293-MR lysate, 20 μg 293-GR lysate, 22 μg 293-AR lysate, or 40 μg 293-PR lysate per well. Assays are typically run in 96-well format. Competing test compounds are added at various concentrations ranging from about 0.01 nM to 10 μM. Non-specific binding is determined in the presence of 500 nM aldosterone for MR binding, 500 nM dexamethasone for GR binding, or 500 nM methyltrienolone for AR and PR binding. […] After an incubation of 2 hours, plates are read in a Wallac Microbeta counter. […]

Take `CC(C)OC(=O)N[C@H]1Cc2c(n(C[C@H]3OCC[C@@H]3O)c3ccc(C#N)cc23)C1` [compound of Formula (I), [(S)-7-Cyano-4-((2R,3S)-3-hydroxytetrahydrofuran-2-ylmethyl)-1,2,3,4-tetrahydrocyclopenta[b]indol-2-yl]-carbamic acid isopropyl ester]: the inhibition constant (Ki) was more than 2 µM.
